Laboratory results as given in patent US20250074916A1, “BRM TARGETING COMPOUNDS AND ASSOCIATED METHODS OF USE” (Prelude Therapeutics Incorporated, priority 2023, published 2025).

Tests used:
SMARCA2 = target: T1, SMARCA2 (Homo sapiens, UniProt P51531); test: SMARCA2 HiBiT degradation assay in HeLa cells; type: cell-based; conditions: 18 hours incubation
T1 construct: SMARCA2-HiBiT knock-in Hela monoclonal cell (CS302366); host or cells: HeLa SMARCA2-HiBiT knock-in monoclonal cells (heterozygous knock-in)
Experimental: (§1) Example A. SMARCA2 HiBiT and SMARCA4 HiBiT Degradation Assay
(§2) Preparation of SMARCA2/4-HiBiT Knock-In Cells
(§3) HiBiT peptide knock-in of SMARCA2 in LgBiT expressing HEK293T cells was performed by CRISPR-mediated tagging system as described Promega. The homozygous HiBiT knock-in on c-terminus SMARCA2 was confirmed by sanger sequence. SMARCA2-HiBiT knock-in Hela monoclonal cell (CS302366) and SMARCA4-HiBiT knock-in Hela monoclonal cell (CS3023226) were purchased from Promega. The heterozygous HiBiT-knock-in was confirmed by sanger sequence in both SMARCA2-HiBiT and SMARCA4-HiBiT monoclonal cells.
(§4) SMARCA2 HiBiT and SMARCA4 HiBiT Degradation Assay in HeLa Cells
(§5) Compounds were dissolved in DMSO to make 10 mM stock and 3-fold series dilutions were further conducted keeping the highest concentration 10 μM. NCIH1693 and NCIH520 cells were maintained in PRMI 1640 medium (Corning Cellgro, Catalog #:10-040-CV) supplemented with 10% v/v FBS (GE Healthcare, Catalog #: SH30910.03) by splitting 1:3 twice a week.
(§6) Dispense 10 ul aliquot of prepared Hela-SMARCA2-HiBiT or Hela-SMARCA4-HiBiT cells (1:1 ratio of cells:Trypan Blue (#1450013, Bio-Rad)) onto cell counting slide (#145-0011, Bio-Rad) and obtain cell density and cell viability using cell counter (TC20, Bio-Rad). Remove appropriate volume of resuspended cells from culture flask to accommodate 2500 cells/well @[…]. Transfer Hela-HiBiT cells to 50 mL conical (#430290, Corning). Spin down at 1000 rpm for 5 min using tabletop centrifuge (SPINCHRON 15, Beckman). Discard supernatant and resuspend cell pellet in modified EMEM (#30-2003, ATCC) cell culture media containing 10% FBS (F2422-500 ML, Sigma), and 1× Penicillin/Streptomycin (200 g/L) (30-002-CI, Corning) to a cell density of 125,000 cells/mL. Dispense […] of resuspended Hela-HiBit cells per well in 384-well TC treated plate (#12-565-343, Thermo Scientific) using standard cassette (#50950372, Thermo Scientific) on Multidrop Combi (#5840310, Thermo Scientific) inside laminar flow cabinet. Dispense test compounds onto plates using digital liquid dispenser (D300E, Tecan). Incubate plates in humidified tissue culture incubator @37° C. for 18 hours. Add […] of prepared Nano-Glo® HiBiT Lytic detection buffer (N3050, Promega) to each well of 384-well plate using small tube cassette (#24073295, Thermo Scientific) on Multidrop Combi, incubate @RT for 30-60 min. Read plates on microplate reader (Envision 2105, PerkinElmer) using 384 well Ultra-Sensitive luminescence mode. Raw data files and compound information reports are swept into centralized data lake and deconvoluted using automated scripts designed by TetraScience, Inc. Data analysis, curve-fitting and reporting done in Dotmatics Informatics Suite using Screening Ultra module.
(§7) In Table 5, A=DC50<0.1 μM; B=0.1 μM≤DC50<1 μM and C=DC50>1 μM. In Table 5, A=Dmax>75% and B=50%<Dmax≤75% and C=Dmax<50%.

SMARCA4 = target: T2, SMARCA4 (Homo sapiens, UniProt P51532); test: SMARCA4 HiBiT degradation assay in HeLa cells; type: cell-based; conditions: 18 hours incubation
T2 construct: SMARCA4-HiBiT knock-in Hela monoclonal cell (CS3023226) were purchased from Promega; host or cells: HeLa SMARCA4-HiBiT knock-in monoclonal cells (heterozygous knock-in)
Experimental: as §1, §2, §3, §4, §5, §6, §7

T1 sequence (P51531 whole entry): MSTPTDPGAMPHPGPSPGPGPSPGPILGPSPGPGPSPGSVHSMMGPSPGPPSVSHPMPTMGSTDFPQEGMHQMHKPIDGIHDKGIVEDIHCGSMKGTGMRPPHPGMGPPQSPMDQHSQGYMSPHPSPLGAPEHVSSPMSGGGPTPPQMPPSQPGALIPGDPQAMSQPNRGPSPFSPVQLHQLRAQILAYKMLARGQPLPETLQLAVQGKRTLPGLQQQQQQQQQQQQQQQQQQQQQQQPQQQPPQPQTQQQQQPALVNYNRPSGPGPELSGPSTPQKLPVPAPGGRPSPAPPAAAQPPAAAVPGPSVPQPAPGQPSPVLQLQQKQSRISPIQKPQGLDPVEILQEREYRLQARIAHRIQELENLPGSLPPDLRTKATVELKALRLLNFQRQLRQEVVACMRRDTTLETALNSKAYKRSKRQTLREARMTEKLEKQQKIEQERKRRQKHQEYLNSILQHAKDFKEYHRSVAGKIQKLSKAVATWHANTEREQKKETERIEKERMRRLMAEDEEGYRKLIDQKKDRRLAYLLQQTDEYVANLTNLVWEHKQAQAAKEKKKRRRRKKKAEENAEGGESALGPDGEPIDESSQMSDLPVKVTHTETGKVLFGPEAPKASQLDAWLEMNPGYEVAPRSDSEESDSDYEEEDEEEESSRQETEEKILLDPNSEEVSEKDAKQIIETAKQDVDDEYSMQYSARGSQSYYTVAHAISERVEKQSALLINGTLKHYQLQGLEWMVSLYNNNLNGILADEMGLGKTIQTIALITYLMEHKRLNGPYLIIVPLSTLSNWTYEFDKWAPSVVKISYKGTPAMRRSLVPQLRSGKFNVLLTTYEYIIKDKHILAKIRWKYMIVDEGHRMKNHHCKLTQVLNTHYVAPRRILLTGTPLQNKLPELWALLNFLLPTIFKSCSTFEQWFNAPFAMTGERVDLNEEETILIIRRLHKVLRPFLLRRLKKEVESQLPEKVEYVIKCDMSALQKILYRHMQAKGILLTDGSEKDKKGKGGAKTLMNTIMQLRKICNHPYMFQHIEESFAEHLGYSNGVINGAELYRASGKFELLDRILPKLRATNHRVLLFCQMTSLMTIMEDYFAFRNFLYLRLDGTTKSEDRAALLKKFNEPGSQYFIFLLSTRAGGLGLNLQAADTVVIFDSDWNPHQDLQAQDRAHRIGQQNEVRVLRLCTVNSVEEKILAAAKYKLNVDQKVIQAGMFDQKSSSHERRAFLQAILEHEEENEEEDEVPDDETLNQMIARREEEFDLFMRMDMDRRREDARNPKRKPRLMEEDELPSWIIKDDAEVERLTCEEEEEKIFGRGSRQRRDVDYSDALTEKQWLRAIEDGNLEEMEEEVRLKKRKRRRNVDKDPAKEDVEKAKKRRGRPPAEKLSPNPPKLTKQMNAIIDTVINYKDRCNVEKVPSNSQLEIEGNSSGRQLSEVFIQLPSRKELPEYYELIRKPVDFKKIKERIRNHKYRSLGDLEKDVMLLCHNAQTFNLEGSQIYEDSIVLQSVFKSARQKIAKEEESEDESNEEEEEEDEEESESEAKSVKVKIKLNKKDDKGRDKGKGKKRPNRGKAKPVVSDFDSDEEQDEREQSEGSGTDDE
T2 sequence (P51532 whole entry): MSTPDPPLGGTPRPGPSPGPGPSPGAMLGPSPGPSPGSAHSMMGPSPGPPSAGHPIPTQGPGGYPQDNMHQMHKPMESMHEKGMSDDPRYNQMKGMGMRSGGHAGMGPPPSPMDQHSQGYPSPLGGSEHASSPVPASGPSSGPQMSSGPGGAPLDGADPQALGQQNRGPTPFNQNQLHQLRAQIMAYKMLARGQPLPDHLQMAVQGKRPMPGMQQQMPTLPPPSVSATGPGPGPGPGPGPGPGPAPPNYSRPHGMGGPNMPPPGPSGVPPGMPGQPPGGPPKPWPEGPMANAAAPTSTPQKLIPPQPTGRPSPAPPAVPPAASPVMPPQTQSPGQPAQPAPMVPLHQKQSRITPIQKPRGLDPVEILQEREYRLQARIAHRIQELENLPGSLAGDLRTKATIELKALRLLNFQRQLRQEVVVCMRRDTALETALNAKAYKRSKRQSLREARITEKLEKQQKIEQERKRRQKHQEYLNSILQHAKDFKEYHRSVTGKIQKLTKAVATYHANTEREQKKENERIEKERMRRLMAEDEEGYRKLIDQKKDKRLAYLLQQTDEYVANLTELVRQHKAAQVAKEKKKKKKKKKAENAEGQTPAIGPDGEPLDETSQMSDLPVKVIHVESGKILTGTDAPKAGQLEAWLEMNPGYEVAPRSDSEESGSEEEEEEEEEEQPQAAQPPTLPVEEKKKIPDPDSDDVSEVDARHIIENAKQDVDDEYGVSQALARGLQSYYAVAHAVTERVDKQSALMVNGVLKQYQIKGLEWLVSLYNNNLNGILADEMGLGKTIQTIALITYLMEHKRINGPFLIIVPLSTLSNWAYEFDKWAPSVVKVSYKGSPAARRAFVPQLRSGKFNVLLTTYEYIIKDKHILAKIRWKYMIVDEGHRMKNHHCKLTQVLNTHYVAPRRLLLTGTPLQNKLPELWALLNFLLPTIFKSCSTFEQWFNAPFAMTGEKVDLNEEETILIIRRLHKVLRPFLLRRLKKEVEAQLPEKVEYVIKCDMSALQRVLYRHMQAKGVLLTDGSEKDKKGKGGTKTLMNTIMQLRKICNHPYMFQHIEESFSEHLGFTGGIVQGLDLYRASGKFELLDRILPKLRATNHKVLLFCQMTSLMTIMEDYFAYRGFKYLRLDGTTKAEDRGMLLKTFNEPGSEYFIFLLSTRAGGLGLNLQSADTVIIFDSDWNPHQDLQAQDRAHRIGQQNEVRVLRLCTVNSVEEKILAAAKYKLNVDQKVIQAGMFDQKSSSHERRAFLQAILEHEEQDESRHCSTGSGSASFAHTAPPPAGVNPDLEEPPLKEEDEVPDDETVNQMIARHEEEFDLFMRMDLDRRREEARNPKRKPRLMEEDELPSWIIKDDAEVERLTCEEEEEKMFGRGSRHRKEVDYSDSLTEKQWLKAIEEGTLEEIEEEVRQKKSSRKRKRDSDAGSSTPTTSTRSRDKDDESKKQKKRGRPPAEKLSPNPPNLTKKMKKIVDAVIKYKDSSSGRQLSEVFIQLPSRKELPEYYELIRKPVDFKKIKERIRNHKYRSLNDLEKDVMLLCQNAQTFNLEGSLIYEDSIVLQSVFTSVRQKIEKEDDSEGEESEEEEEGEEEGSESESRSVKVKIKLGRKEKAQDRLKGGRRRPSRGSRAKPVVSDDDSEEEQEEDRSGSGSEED

| DC50 (SMARCA2) [nM] | Dmax (SMARCA2) [%] | DC50 (SMARCA4) [nM] | Dmax (SMARCA4) [%] | SMILES |
| --- | --- | --- | --- | --- |
| < 100 | > 75 | < 100 | > 75 | C[C@@H]1CN(CC2CCN(c3ccc4c(c3)C(=O)N([C@H]3CCC(=O)NC3=O)C4)CC2)C[C@H](C)N1C(=O)N1CCc2[nH]c3nnc(-c4ccccc4O)cc3c2CC1 [Example 2, (S)-3-(6-(4-(((3R,5S)-4-(3-(2-hydroxyphenyl)-5,6,7,8,9,10-hexahydropyridazino[4′,3′:4,5]pyrrolo[2,3-d]azepine-7-carbonyl)-3,5-dimethylpiperazin-1-yl)methyl)piperidin-1-yl)-1-oxoisoindolin-2-yl)piperidine-2,6-dione] |
| 100 to 1000 | < 50 | 100 to 1000 | < 50 | CC1(C)CN(CC2CCN(c3ccc4c(c3)C(=O)N([C@H]3CCC(=O)NC3=O)C4)CC2)CCN1C(=O)N1CC2CCC1Cc1c2[nH]c2nnc(-c3cccc(F)c3O)cc12 (stereo partly drawn) [Example 7, (3S)-3-(6-(4-((4-(3-(3-fluoro-2-hydroxyphenyl)-5,6,7,8,9,10-hexahydro-6,9-(epiminomethano)cyclohepta[4,5]pyrrolo[2,3-c]pyridazine-12-carbonyl)-3,3-dimethylpiperazin-1-yl)methyl)piperidin-1-yl)-1-oxoisoindolin-2-yl)piperidine-2,6-dione] |
| 100 to 1000 | 50 to 75 | > 1000 | < 50 | CCC1CN(C(=O)N2CCN(CC3CCN(c4ccc5c(c4)C(=O)N([C@H]4CCC(=O)NC4=O)C5)CC3)CC2(C)C)CCc2c1[nH]c1nnc(-c3cccc(F)c3O)cc21 (stereo partly drawn) [Example 5, (3S)-3-(6-(4-((4-(9-ethyl-3-(3-fluoro-2-hydroxyphenyl)-5,6,7,8,9,10-hexahydropyridazino[4′,3′:4,5]pyrrolo[2,3-d]azepine-7-carbonyl)-3,3-dimethylpiperazin-1-yl)methyl)piperidin-1-yl)-1-oxoisoindolin-2-yl)piperidine-2,6-dione] |
| < 100 | 50 to 75 | > 1000 | < 50 | CC1(C)CN(CC2CCN(c3ccc4c(c3)C(=O)N([C@H]3CCC(=O)NC3=O)C4)CC2)CCN1C(=O)N1CCc2[nH]c3nnc(-c4cccc(F)c4O)cc3c2CC1 [Example 4, (S)-3-(6-(4-((4-(3-(3-Fluoro-2-hydroxyphenyl)-5,6,7,8,9,10-hexahydro-pyridazino[4′,3′:4,5]pyrrolo[2,3-d]azepine-7-carbonyl)-3,3-dimethylpiperazin-1-yl)methyl)piperidin-1-yl)-1-oxoisoindolin-2-yl)piperidine-2,6-dione] |
| < 100 | > 75 | < 100 | > 75 | CC1(C)CN(CC2CCN(c3ccc4c(c3)C(=O)N([C@H]3CCC(=O)NC3=O)C4)CC2)CCN1C(=O)N1CCc2[nH]c3nnc(-c4ccccc4O)cc3c2CC1 [Example 1, (S)-3-(6-(4-((4-(3-(2-Hydroxyphenyl)-5,6,7,8,9,10-hexahydropyridazino [4′,3′:4,5]pyrrolo[2,3-d]azepine-7-carbonyl)-3,3-dimethylpiperazin-1-yl)methyl)piperidin-1-yl)-1-oxoisoindolin-2-yl)piperidine-2,6-dione] |
| < 100 | > 75 | < 100 | > 75 | O=C1CC[C@H](N2Cc3ccc(N4CCC(CN5CCN(C(=O)N6CCc7[nH]c8nnc(-c9ccccc9O)cc8c7CC6)CC5)CC4)cc3C2=O)C(=O)N1 [Example 3, (S)-3-(6-(4-((4-(3-(2-hydroxyphenyl)-5,6,7,8,9,10-hexahydropyridazino[4′,3′:4,5]pyrrolo[2,3-d]azepine-7-carbonyl)piperazin-1-yl)methyl)piperidin-1-yl)-1-oxoisoindolin-2-yl)piperidine-2,6-dione] |

| SMILES | DC50 (SMARCA2) [nM] | Dmax (SMARCA2) [%] | DC50 (SMARCA4) [nM] | Dmax (SMARCA4) [%] |
| --- | --- | --- | --- | --- |
| CC1(C)CN(CC2CCN(c3ccc4c(c3)C(=O)N([C@H]3CCC(=O)NC3=O)C4)CC2)CCN1C(=O)N1C2CCC1Cc1c([nH]c3nnc(-c4cccc(F)c4O)cc13)C2 (stereo partly drawn) [Example 6, (3S)-3-(6-(4-((4-(3-(3-fluoro-2-hydroxyphenyl)-6,7,8,9,10,11-hexahydro-5H-6,9-epiminocycloocta[4,5]pyrrolo[2,3-c]pyridazine-12-carbonyl)-3,3-dimethylpiperazin-1-yl)methyl)piperidin-1-yl)-1-oxoisoindolin-2-yl)piperidine-2,6-dione] | < 100 | > 75 | 100 to 1000 | 50 to 75 |
